According to patent US20020007079A1, “MEIOSIS REGULATING COMPOUNDS” (priority 1998, published 2002):

Assays:
oocytes [1] = test: agonistic oocyte assay (germinal vesicle breakdown); format: cell-based, mice; conditions: for relative GVB (relative effect): indexed against control (0) and FF-MAS (100); for GVB (percentage of oocytes undergoing germinal vesicle breakdown): oocytes cultured 24 hours at 37° C. in Hx-medium (3 mM hypoxanthine)
Procedure: An agonistic oocyte assay can be performed as follows:
Oocytes were obtained from immature female mice (C57BL/6J×DBA/2J F1, Bomholtgaard, Denmark) weighing 13-16 grams, that were kept under controlled temperature (20-22° C.), light (lights on 06.00-18.00) and relative humidity (50-70%). The mice received an intra-peritoneal injection of 0.2 ml gonadotropins (Gonal-F, Serono) containing 20 IU FSH and 48 hours later the animals were killed by cervical dislocation.
The ovaries were dissected out and the oocytes were isolated in Hx-medium (see below) under a stereo microscope by manual rupture of the follicles using a pair of 27 gauge needles. Spherical oocytes displaying an intact germinal vesicle (hereinafter designated GV) were divided in cumulus enclosed oocytes (hereinafter designated CEO) and naked oocytes (hereinafter designated NO) and placed in a-minimum essential medium (α-MEM without ribonucleosides, Gibco BRL, Cat. No. 22561) supplemented with 3 mg/ml bovine serum albumin (BSA, Sigma Cat. No. A-7030), 5 mg/ml human serum albumin (HSA, Statens Seruminstitute, Denmark), 0.23 mM pyruvate (Sigma, Cat. No S-8636), 2 mM glutamine (Flow Cat. No. 16-801), 100 IU/ml penicillin and 100 μg/ml streptomycin (Flow, Cat No. 16-700). This medium was supplemented with 3 mM hypoxanthine (Sigma Cat. No. H-9377) and designated Hx-medium.
The oocytes were rinsed three times in Hx-medium and oocytes of uniform size were divided into groups of CEO and NO. CEO and NO were cultured in 4-well multidishes (Nunclon, Denmark) in which each well contained 0.4 ml of Hx-medium. One control well (i.e., 35-45 oocytes cultured in identical medium with no addition of test compound) was always cultured simultaneously with 3 test wells (35-45 oocytes per well supplemented with test compound).
The oocytes were cultured in a humidified atmosphere of 5% CO2 in air for 24 hours at 37° C. By the end of the culture period, the number of oocytes with germinal vesicle (hereinafter designated GV), germinal vesicle breakdown (hereinafter designated GVB) and polar bodies (hereinafter designated PB), respectively, were counted using a stereomicroscope (Wildt, Leica MZ 12). The percentage GVB, defined as percentage of oocytes undergoing GVB per total number of oocytes in that well, was calculated as:
% GVB=(number of GVB+number of PB/total number oocytes)×100.
The % PB was defined as percentage of oocytes displaying one extruded polar body per total number of oocytes in that well.
The effect of the tested compounds has been indexed against control level and 4,4-5 dimethyl-5β-cholesta-8,14,24-trien-39-ol (hereinafter designated FF-MAS) where controls and FF-MAS are indexed to an effect of 0 and 100, respectively. The relative effect of the tested compound is calculated as follows: […]

oocytes [2] = test: in vitro fertilization (IVF) assay; format: cell-based, mice; conditions: GVB oocytes after 18 hours culture, examined 20-22 hours after insemination; control 22%
Procedure: An in vitro fertilization (IVF) assay can be performed as follows:
Naked oocytes (NO) and cumulus enclosed oocytes (CEO) from immature mice (C57B1 16J×DBAJ/2)F, were isolated and cultured under the same conditions as described for the agonistic oocyte assay (Example 5). […] The dishes were then incubated under defined gas conditions (5% CO2) at 37° C. in a modified (α-MEM IVF-medium. Neither the insemination medium nor the IVF-medium contained hypoxanthine. Examination of the oocytes was carried out 20-22 hours after insemination, in order to check fertilization and to record the number of 2-cell embryos. The percentage fertilization (=fertilization rate) was determined from counts of oocytes that had cleaved into two-cell embryos.

naked oocytes (NO) [3] = conditions: previously shown, Byskov et al. Nature 374 (1995), 559-562; cited from earlier work
naked oocytes (NO) [4] = test: antagonistic oocyte assay (co-culture with FF-MAS); format: cell-based, mice; conditions: naked oocytes in Hx-medium with 5 μM FF-MAS in co-culture with test compound
Procedure: An antagonistic oocyte assay can be performed as follows:
20 Oocytes were obtained from immature female mice (C57BI/6J×DBA/2J F1-hybrids, Bomholtgaard, Denmark) weighing 13-16 grams, that were kept under controlled lighting and temperature. The mice received an intra-peritoneal injection of 0.2 ml gonadotropins (Gonal F, Serono, Solna, Sweden, containing 20 IU FSH, alternatively, Puregon, Organon, Swords, Ireland containing 20 IU FSH) and 48 hours later the animals were killed by cervical dislocation.
The ovaries were dissected out and the oocytes were isolated in Hx-medium (see below) under a stereo microscope by manual rupture of the follicles using a pair of 27 gauge needles. […]
By the end of the culture period, the number of oocytes with germinal vesicle (GV) or germinal vesicle breakdown (GVB) and those with polar body (PB) was counted using a stereo-microscope or an inverted microscope with differential interference contrast equipment. The percentage of oocytes with GVB+PB per total number of oocytes were calculated in the test cultures and in the control (positive and negative) culture groups. The relative inhibition of the test compound was calculated by the following formula: […]

| Molecule | relative GVB (relative effect) (oocytes [1]) [%] | GVB (percentage of oocytes undergoing germinal vesicle breakdown) (oocytes [1]) [%] | fertilization rate (oocytes cleaved into two-cell embryos) (oocytes [2]) [%] | melting point [°C] | induction of meiosis in NO in vitro (naked oocytes (NO) [3]) | PB (oocytes with polar body) (naked oocytes (NO) [4]) [%] |
| --- | --- | --- | --- | --- | --- | --- |
| CC(C)CCC[C@@H](C)[C@H]1[C@@H](O)C[C@H]2[C@@H]3CC=C4CCCC[C@]4(C)[C@H]3CC[C@]12C [Example 1, 16β-Hydroxycholest-5-ene] | 88 | 72 | 62 | 107 to 108 |  |  |
| CC(C)=CCC[C@@H](C)[C@H]1CC=C2C3=C(CC[C@@]21C)[C@@]1(C)CC[C@H](O)C(C)(C)[C@@H]1CC3 [FF-MAS, 4,4-Dimethyl-5α-cholesta-8,14,24-trien-3β-ol] |  |  |  |  | induce meiosis |  |
| (25R)-160.26-Dihydroxycholest-5-ene [Example 4] | 73 | 63 |  |  |  | 5 |
